Data from patent US20080090900A1, “ANTIBIOTIC BUSHRIN” (University of Karachi, priority 2006, published 2008).

Tested on: Clostridium sporogenes
Assay: microbe, parasite or virus in culture
Type: cell-based

## Cc1cc(O)c2c(c1)C=CC(C)(c1ccoc1)C2 (stereo not shown) [Compound 1, 7-(3-furyl)-3,7-dimethyl-7,8-dihydro-1-naphthalenol]
  antibacterial activity: less active
